In US20240083888A1, “SMALL MOLECULE INHIBITOR FOR CATHEPSIN C AND MEDICINAL USE THEREOF” (REISTONE BIOPHARMA COMPANY LIMITED, priority 2020, published 2024):
Structures can show the parent of a compound that is named as a salt. Where two headings read alike, the source gives them in different places.

How the values were obtained:
[1] = Pharmacokinetic experiment in BALB/c mice; type: in vivo; details: male, mouse, plasma
Protocol: BALB/c mice (male, 20 to 30 g, fasting)
Pharmacokinetic characteristics of the compounds in rodent after intravenous or oral administration were determined by standard protocols. In the experiment, the compound was formulated into a clear solution, and administered to mice by single intravenous injection or oral administration. The intravenous injection vehicle was a mixed vehicle of 500 dimethyl sulfoxide and 9500 (3000 aqueous sulfobutylether cyclodextrin solution). The oral vehicle is a solution of 0.50% hydroxypropylmethylcellulose and 0.10% polysorbate 80 in water. Whole blood samples within 24 hours were collected, and the supernatants were separated to obtain plasma samples. Quantitative analysis of plasma concentration was carried out by LC-MS/MS analysis method, and the pharmacokinetic parameters, such as peak concentration (Cmax), clearance (Cl), half-life (T1/2), volume of distribution (Vdss) and area under the drug-time curve (AUC), were calculated.

[2] = Pharmacokinetic experiment in beagle dogs; type: in vivo; details: male, dog, plasma
Protocol: Beagle dogs (male, 9 to 11 kg)
Pharmacokinetic characteristics of the compounds in beagle dogs after intravenous or oral administration were determined by standard protocols. In the experiment, the compound was formulated into a clear solution, and administered to beagle dogs by single intravenous injection or oral administration. The intravenous injection vehicle was a mixed vehicle of 5% dimethyl sulfoxide and 95% (28% aqueous hydroxypropyl beta cyclodextrin solution). The oral vehicle is a solution of 0.5% hydroxypropylmethylcellulose and 0.1% polysorbate 80 in water. Whole blood samples within 24 hours were collected, and the supernatants were separated to obtain plasma samples. The sample was centrifuged to obtain the supernatant, to which an equal volume of water was added. The resulting solution was centrifuged to obtain the supernatant, which was injected into the analysis machine. Quantitative analysis of plasma concentration was carried out by LC-MS/MS analysis method, and the pharmacokinetic parameters, such as peak concentration (Cmax), clearance (Cl), half-life (T1/2), volume of distribution (Vdss) and area under the drug-time curve (AUC), were calculated.

rhCatC = rhCatC (Homo sapiens (Human), UniProt P53634); test: In vitro enzyme activity experiment of rhCatC (AMC fluorescence assay); type: biochemical; details: rhCatC enzyme, substrate H-Gly-Arg-AMC; read-out: Biological activity IC50
Chain of rhCatC (P53634 25-134): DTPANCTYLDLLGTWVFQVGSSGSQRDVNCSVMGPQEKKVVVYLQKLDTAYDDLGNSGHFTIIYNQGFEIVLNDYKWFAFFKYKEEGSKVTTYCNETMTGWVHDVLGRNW
Chain of rhCatC (P53634 231-394): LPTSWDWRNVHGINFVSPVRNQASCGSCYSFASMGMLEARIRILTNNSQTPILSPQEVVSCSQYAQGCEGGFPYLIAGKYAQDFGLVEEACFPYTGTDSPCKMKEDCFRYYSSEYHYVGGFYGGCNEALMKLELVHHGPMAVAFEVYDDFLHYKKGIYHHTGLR
Chain of rhCatC (P53634 395-463): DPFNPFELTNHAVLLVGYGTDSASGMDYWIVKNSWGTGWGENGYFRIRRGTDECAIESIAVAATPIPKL
Protocol: The in vitro inhibitory effect of compounds and positive control on rhCatC enzyme activity was evaluated by AMC fluorescence assay. rhCatC can catalyze the reaction of substrate peptide H-Gly-Arg-AMC, and release AMC to generate fluorescence. […] The compound was diluted with DMSO to a 384-well echo plate at a concentration of 100× of the highest concentration at the beginning of the experiment. 0.2 μL of the diluted compound was pipetted to a black-bottomed 384-well reaction plate for later use. The negative control well was DMSO. • 2) Activation of rhCatC: RhCatC and rhCatL were added to the activation buffer to obtain a final concentration of rhCatC of 100 μg/mL and a final concentration of rhCatL of 20 μg/mL, and incubated at room temperature for 1 hour. • 3) Enzyme activity reaction: Activated rhCatC was diluted to 0.4 μg/mL with the reaction buffer. The solution was added to the black-bottom 384-well reaction plate ([…]). 10 μL of the buffer was added for the vehicle control group. The plate containing compounds in its wells was incubated at room temperature for 30 minutes.
The RLU data was read, the inhibition rate was calculated, and the IC50 value was calculated according to the fitting curve of concentration and inhibition rate.

CatC = CatC (Homo sapiens (Human), UniProt P53634); test: In vitro CatC cell activity experiment in U937 cell line; type: cell-based
Chain of CatC (P53634 25-134): as the sequence (P53634 25-134) above
Chain of CatC (P53634 231-394): as the sequence (P53634 231-394) above
Chain of CatC (P53634 395-463): as the sequence (P53634 395-463) above
Protocol: The U937 cell line was resuscitated and passed for about two generations, and the cell line with good growth status was selected. The cell suspension was transferred into a centrifuge tube, and centrifuged at 800 to 1000 rpm for 3 to 5 minutes. The supernatant was discarded. An appropriate volume of culture medium was added to the centrifuge tube, which was gently pipetted to resuspend the cells evenly. The cells were counted using a Vi-Cell XR cell counter. The cell suspension was adjusted to an appropriate concentration. The cell suspension was added into a 384-well plate ([…]). The compound was formulated into a 10 mM solution with DMSO. The compound was diluted with DMSO to obtain a 1 mM solution, and a semi-logarithmi dilution was carried out by HPD300 with DMSO to obtain 10 concentrations. Gly-Phe-AFC was formulated into a 35 mM solution with DMSO and divided. […] After adding the compounds and incubating for 1 hour in an incubator, substrate-AFC was added (12.5 μL was added to the plate). The plate was incubated for 30 minutes and read. […] XLFit was used to draw the drug efficacy inhibition rate curve and calculate the IC50 value. 4-parameter model [fit=(A+((B−A)/(1+((C/x)^D))))] was used.

[3] = tested on: neutrophil elastase (NE) downstream of CatC; test: Target binding model in C57BL/6 mice: NE protease activity in bone marrow; type: in vivo; details: 3 mg/kg PO, 8 days, bone marrow cell lysate, female C57BL/6 mice
Protocol: 1. Experimental protocol: In order to investigate the inhibitory effect of the compounds on the activity of neutrophil elastase (hereinafter referred to as NE) downstream of CatC in neutrophil, female C57BL/6 mice were administered according to the following table:
2. Experimental procedures: The compound or vehicle control was administered continuously for 8 days. On Day 1 to 7, the compound or vehicle control was administered twice a day with an administration interval of 6 hours. On Day 8, the test material was collected one hour after the first administration. […] The sample was washed once with Dulbecco's phosphate buffer, centrifuged at 400 g for 5 minutes and counted. […] The supernatant was stored at −80° C. until protease activity was determined. The protease activity in the cell lysates of each group was determined using the NE protease activity detection kit (Sigma-Aldrich MAK246). 7.5 μL of 3× diluted bone marrow cell lysate or 7.5 μL of double-diluted NE standard and 7.5 μL of 25× diluted substrate were added to a 384-well plate, and the NE protease activity was immediately monitored in real-time at Ex 380 nm and Em 500 nm for 30 minutes. The RFU within the linear reaction time was determined, and the NE protease activity (ng/ml) in the sample was calibrated by the standard curve.

[4] = U937 cells, CatC cell activity, read-out: Biological activity IC50

Compound Cn1c(=O)oc2ccc(-c3ccc(C[C@@H](C#N)NC(=O)[C@@H]4CNCCCO4)cc3)cc21 [AZD7986, reference compound] has an AUC(0-t) ([1]; IV, 2 mg/kg) of 2120 ng·h/mL, a clearance ([1]; IV, 2 mg/kg) of 15.1 mL/min/kg and a half-life ([1]; IV, 2 mg/kg) of 2.74 h. For the same compound, the Vd ([1]; IV, 2 mg/kg, read-out: Vdss) was 2.34 L/kg, the AUC(0-t) ([1]; PO, 5 mg/kg) was 2130 ng·h/mL and the Tmax ([1]; PO, 5 mg/kg) was 1.5 h. For the same compound, the bioavailability ([1]; PO, 5 mg/kg) was 40.2%, the half-life ([1]; PO, 5 mg/kg) was 3.18 h and the AUC(0-t) ([2]; IV, 1 mg/kg) was 1410 ng·h/mL. For the same compound, the half-life ([2]; IV, 1 mg/kg) was 13.5 h, the Vd ([2]; IV, 1 mg/kg, read-out: Vdss) was 9.26 L/kg and the AUC(0-t) ([2]; PO, 2 mg/kg) was 3670 ng·h/mL. The Tmax ([2]; PO, 2 mg/kg) was 1.67 h, the bioavailability ([2]; PO, 2 mg/kg) was 104% and the half-life ([2]; PO, 2 mg/kg) was 15.3 h.
Work on N#CC(Cc1ccc2c(c1)OCc1cc(F)ccc1-2)NC(=O)C1(N)CCOCC1 (stereo not shown) [Compound 22, 4-Amino-N-(1-cyano-2-(8-fluoro-6H-benzo[c]chromen-3-yl)ethyl)tetrahydro-2H-pyran-4-carboxamide formate] yielded an IC50 (rhCatC) of 3.2 nM and an IC50 (CatC) of 5.5 nM.
For N#CC(Cc1cc2c(cc1F)-c1ccc(F)cc1CO2)NC(=O)C1(N)CCOCC1 (stereo not shown) [Compound 24, 4-Amino-N-(1-cyano-2-(2,8-difluoro-6H-benzo[c]chromen-3-yl)ethyl)tetrahydro-2H-pyran-4-carboxamide], the IC50 (rhCatC) was 2.7 nM and the IC50 (CatC) was 4.3 nM.
In the case of N#Cc1ccc2c(c1)COc1cc(CC(C#N)NC(=O)C3(N)CCOCC3)ccc1-2 (stereo not shown) [Compound 25, 4-Amino-N-(1-cyano-2-(8-cyano-6H-benzo[c]chromen-3-yl)ethyl)tetrahydro-2H-pyran-4-carboxamide], the IC50 (rhCatC) is reported as 3.1 nM and the IC50 (CatC) is reported as 5.52 nM.
Compound N#Cc1ccc2c(c1)COc1cc(C[C@@H](C#N)NC(=O)[C@@H]3C[C@@H]4CCC[C@@H]4N3)c(F)cc1-2 [Compound 26, (2S,3aS,6aS)—N—((S)-1-Cyano-2-(8-cyano-2-fluoro-6H-benzo[c]chromen-3-yl)ethyl)octahydrocyclopenta[b]pyrrole-2-carboxamide] has an IC50 (rhCatC) of 8.9 nM and an IC50 (CatC; [4]) of 6.7 nM.
With CS(=O)(=O)c1ccc2c(c1)COc1cc(CC(C#N)NC(=O)[C@@H]3CNCCCO3)c(F)cc1-2 (stereo partly drawn) [Compound 29, (2S)—N-(1-Cyano-2-(2-fluoro-8-(methylsulfonyl)-6H-benzo[c]chromen-3-yl)ethyl)-1,4-oxazepane-2-carboxamide] the IC50 (rhCatC) was 17.1 nM and the IC50 (CatC) was 36.8 nM.
With CS(=O)(=O)c1ccc2c(c1)COc1cc(C[C@@H](C#N)NC(=O)[C@@H]3CNCCCO3)c(F)cc1-2 [Compound 30, (S)—N—((S)-1-Cyano-2-(2-fluoro-8-(methylsulfonyl)-6H-benzo[c]chromen-3-yl)ethyl)-1,4-oxazepane-2-carboxamide] the IC50 (rhCatC) was 10 nM and the IC50 (CatC) was 9.6 nM.
In the case of N#Cc1ccc2c(c1)-c1cc(F)c(C[C@@H](C#N)NC(=O)[C@@H]3CNCCCO3)cc1OC2 [Compound 32, (S)—N—((S)-1-Cyano-2-(9-cyano-2-fluoro-6H-benzo[c]chromen-3-yl)ethyl)-1,4-oxazepane-2-carboxamide], the IC50 (rhCatC) is reported as 13 nM, the IC50 (CatC) is reported as 7 nM and the “inhibitory rate of NE protease activity compared with AZD7986” value [3] is reported as “higher inhibitory rate of NE protease activity than the reference compound AZD7986”.
With N#CC(Cc1cc2c(cc1F)-c1ccc(S(=O)(=O)N3CCC3)cc1CO2)NC(=O)[C@@H]1CNCCCO1 (stereo partly drawn) [Compound 35, (2S)—N-(2-(8-(Azetidin-1-ylsulfonyl)-2-fluoro-6H-benzo[c]chromen-3-yl)-1-cyanoethyl)-1,4-oxazepane-2-carboxamide] the IC50 (rhCatC) was 15 nM and the IC50 (CatC; [4]) was 37.9 nM.
N#CC(Cc1ccc2c(c1)OCCc1cc(F)ccc1-2)NC(=O)C1(N)CCOCC1 (stereo not shown) [Compound 36, 4-Amino-N-(1-cyano-2-(9-fluoro-6,7-dihydrodibenzo[b,d]oxepin-3-yl)ethyl)tetrahydro-2H-pyran-4-carboxamide] gave an IC50 (rhCatC) of 7.1 nM and an IC50 (CatC; [4]) of 23.7 nM.
N#CC(Cc1ccc2c(c1)COCc1cc(F)ccc1-2)NC(=O)C1(N)CCOCC1 (stereo not shown) [Compound 37, 4-Amino-N-(1-cyano-2-(9-fluoro-5,7-dihydrodibenzo[c,e]oxepin-3-yl)ethyl)tetrahydro-2H-pyran-4-carboxamide] showed an IC50 (rhCatC) of 14 nM and an IC50 (CatC; [4]) of 8.6 nM.
Compound CN1Cc2cc(F)ccc2-c2ccc(C[C@@H](C#N)NC(=O)C3(N)CCOCC3)cc2C1=O [Compound 40, (S)-4-Amino-N-(1-cyano-2-(9-fluoro-6-methyl-5-oxo-6,7-dihydro-5H-dibenzo[c,e]azepin-3-yl)ethyl)tetrahydro-2H-pyran-4-carboxamide] has an IC50 (rhCatC) of 3.7 nM and an IC50 (CatC; [4]) of 10.3 nM.
In the case of CN1Cc2cc(C#N)ccc2-c2cc(F)c(C[C@@H](C#N)NC(=O)[C@@H]3CNCCCO3)cc2C1=O [Compound 41, (S)—N—((S)-1-Cyano-2-(9-cyano-2-fluoro-6-methyl-5-oxo-6,7-dihydro-5H-dibenzo[c,e]azepin-3-yl)ethyl)-1,4-oxazepane-2-carboxamide], the IC50 (rhCatC) is reported as 30.5 nM and the IC50 (CatC; [4]) is reported as 117 nM.
